“Also recorded” adds a separate entry of the source.
Assays:
[1] = system: NU-DHL-1 diffuse large B-cell lymphoma (DLBCL) cells; experiment: CIVO microinjection, staining for MCL-1 and cleaved caspase-3; assay type: in vivo, mice
Description: Mice were enrolled into CIVO drug studies when the tumor volume reached approximately 1000 mm^3. […] A fluorescent tracking marker (FTM) was added to each drug reservoir in vehicle for delivery along with each drug or drug combination. […] Total amounts of agents injected are tabulated below in Table 4.
The cells were stained for cleaved caspase-3 (CC3) (shown in red) as a marker of apoptosis.

RIVA cells = experiment: CIVO microinjection, CC3 expression; set-up: species or system mice; conditions: mouse, in vivo
Description: (§1) Mice were enrolled into CIVO drug studies when the tumor volume reached approximately 1000 mm^3. Microinjection studies were performed using the CIVO device as previously described (Klinghoffer et al, Science Translational Medicine 2015) The device was configured with 6 injection needles set for a 6 mm injection length and a total volume delivery of 3 μl. A fluorescent tracking marker (FTM) was added to each drug reservoir in vehicle for delivery along with each drug or drug combination. All micro-doses were equivalent to or lower than what would be allowed under FDA guidelines for Exploratory IND (Investigational New Drug) studies and by solubility of drug into vehicle. Total amounts of agents injected are tabulated below in Table 4.

Toledo cells = experiment: CIVO microinjection, CC3 expression; set-up: species or system mice; conditions: mouse, in vivo
Description: as §1

[2] = system: HCC1187 triple negative breast cancer (TNBC) xenograft model; experiment: CIVO microinjection, MCL-1 and CC3 staining; assay type: in vivo, mice; conditions: marker of apoptosis
Description: as §1
A drug screen was performed to test multiple drugs simultaneously.
FIG. 11 depicts a similar experiment performed on the HCC1187 triple negative breast cancer (TNBC) xenograft model. […] Cells were then stained for CC3 expression (shown in red) as a marker of apoptosis.
FIGS. 20A-20D depicts the HCC1187 triple negative breast cancer (TNBC) xenograft model. Briefly, cells were treated with vehicle, voruciclib alone, ixazomib alone, or voruciclib and ixazomib in combination. Cells were then stained for CC3 expression (shown in red) as a marker of apoptosis.

RIvA DLBCL model = experiment: Western blot of treated cells; assay type: cell-based; conditions: increasing concentration of voruciclib, single agent
Description: Cell lines shown in Table 1, adherent or suspension, were treated in 6-well dishes or T10 flasks respectively, seeded at one million per ml density prior to treatment in total volumes of 3-10 ml. All agents used for in vitro cell treatments were formulated in water/DMSO to achieve required concentrations (as stated in respective figure labels/legends) with DMSO concentrations not exceeding 0.01%. Drug sources are indicated in table under ‘CIVO microinjection studies’. Cells were harvested at experimental time points: 2, 6, or 24 hours post treatment as indicated in respective figures, first by washing cells twice in ice-cold PBS in 15 ml falcon tubes, centrifugation at 1000 rpm for 5 mins followed by lysis of the respective cell pellets as described in section below. Note: Drug resistant NUDHL1 Dox 1000 nM and Toledo Dox 1000 nM cell lines were generated at Presage by culturing parental lines in media with stepwise increments in Doxorubicin concentration over several passages. […]
Protein lysates were prepared by adding ice-cold 1×RIPA Buffer (from 10×, Millipore) with 1×-3× Halt protease and phosphatase inhibitor cocktail (100×, Pierce) to cell pellets, followed by pulse sonication (˜3-5 secs) three times. […] Protein samples were quantified using Bradford assay (Biorad) at 1:10 or higher dilutions using appropriate blank controls with 1×RIPA. […]

SUDHL4 model of DLBCL = experiment: Xenograft tumor growth and Western blot of tumors; assay type: in vivo, NOD SCID mice
Description: Protein lysates were prepared by adding ice-cold 1×RIPA Buffer (from 10×, Millipore) with 1×-3× Halt protease and phosphatase inhibitor cocktail (100×, Pierce) to cell pellets, followed by pulse sonication (˜3-5 secs) three times. Lysates were cleared by centrifugation at 14K rpm for 15-20 mins and the supernatant (lysate) was collected for further analysis. To prepare lysates from cryopreserved xenograft tumor tissue, tissue was first homogenized using a hand-held tissue homogenizer (Cole Palmer) in above lysis buffer followed by pulse sonication and centrifugation as described above. Above steps were carried out under ice cold conditions. Protein samples were quantified using Bradford assay (Biorad) at 1:10 or higher dilutions using appropriate blank controls with 1×RIPA. […]
Immune deficient NOD SCID mice were implanted with the SUDHL4 model of DLBCL. […] Drug effects were assessed via tumor volume measurements twice weekly by a technician blinded to the treatment of each subject in the study. […]

MV-4-11 = experiment: Western blot of treated AML cells; assay type: cell-based
Description: (§2) Cell lines shown in Table 1, adherent or suspension, were treated in 6-well dishes or T10 flasks respectively, seeded at one million per ml density prior to treatment in total volumes of 3-10 ml. All agents used for in vitro cell treatments were formulated in water/DMSO to achieve required concentrations (as stated in respective figure labels/legends) with DMSO concentrations not exceeding 0.01%. Drug sources are indicated in table under ‘CIVO microinjection studies’. Cells were harvested at experimental time points: 2, 6, or 24 hours post treatment as indicated in respective figures, first by washing cells twice in ice-cold PBS in 15 ml falcon tubes, centrifugation at 1000 rpm for 5 mins followed by lysis of the respective cell pellets as described in section below. Note: Drug resistant NUDHL1 Dox 1000 nM and Toledo Dox 1000 nM cell lines were generated at Presage by culturing parental lines in media with stepwise increments in Doxorubicin concentration over several passages. These cells were used to generate xenografts when resistance to 1 uM Dox was achieved.
(§3) Protein lysates were prepared by adding ice-cold 1×RIPA Buffer (from 10×, Millipore) with 1×-3× Halt protease and phosphatase inhibitor cocktail (100×, Pierce) to cell pellets, followed by pulse sonication (˜3-5 secs) three times. Lysates were cleared by centrifugation at 14K rpm for 15-20 mins and the supernatant (lysate) was collected for further analysis. To prepare lysates from cryopreserved xenograft tumor tissue, tissue was first homogenized using a hand-held tissue homogenizer (Cole Palmer) in above lysis buffer followed by pulse sonication and centrifugation as described above. Above steps were carried out under ice cold conditions. Protein samples were quantified using Bradford assay (Biorad) at 1:10 or higher dilutions using appropriate blank controls with 1×RIPA. 20-25 micrograms of protein from each sample were subject to SDS-PAGE using BOLT 4-12% Bis-Tris gels (Thermofisher) and transferred to either 0.45 or 0.2 micron pore size membranes (as applicable based on protein molecular size), and either nitrocellulose (NC) or pvdf (Thermofisher) using manufacturer's protocol, blocked for one hour in 5% milk at room temperature, probed with primary antibodies (Table 2) at 4 deg C. overnight and corresponding HRP-conjugated secondary antibodies (Jackson Immunoresearch, 1:10,000-1:20,000 dilutions) for 1 hour at room temperature. Three PBS/0.01% Tween-20 washes (5-10 mins each) were carried out after each antibody incubation. ECL chemiluminescent substrate (Pierce or GE) and autoradiographic film (Thermofisher) was used for detection of protein signals.
(§4) At the given time points, cells were lysed and subjected to western blot analysis with antibodies that specifically recognize phosphorylated RNA pol II (pSer2), MCL-1, cleaved PARP, and Beta-actin. […] Cleaved PARP (cPARP) may be used as a biomarker of apoptosis.
(§5) At the given time points, cells were lysed and subjected to western blot analysis with antibodies that specifically recognize phosphorylated RNA pol II (pSer2), MCL-1, cleaved PARP, and Beta-actin. […] Venetoclax is observed to induce MCL-1 upregulation in all three cell lines.

OCI-AML-3 = experiment: Western blot of treated AML cells; assay type: cell-based
Description: as §2, §3, §4, §5

SKM-1 = experiment: Western blot of treated AML cells; assay type: cell-based
Description: as §2, §3, §4, §5

[3] = voruciclib 1.5 and 5.0 micromolar, 2, 6, or 24 h
[4] = voruciclib 1.5 micromolar, venetoclax 100 nM, 24 h

CN1CC[C@@H](c2c(O)cc(O)c3c(=O)cc(-c4ccc(C(F)(F)F)cc4Cl)oc23)[C@@H]1CO (relative stereo) [voruciclib, (+)-trans-2-(2-Chloro-4-trifluoromethylphenyl)-5,7-dihydroxy-8-(2-hydroxymethyl-1-methylpyrrolidin-3-yl)-chromen-4-one]
expression of CC3 (cleaved caspase-3) ([1]; marker of apoptosis): slight increased; also recorded: slight effect
expression of MCL-1 ([1]; staining, versus vehicle): decreased
CC3 expression (RIVA cells): slight effect
CC3 expression (Toledo cells): slight effect
CC3 expression [2]: little to no increase
MCL-1 (RIvA DLBCL model): suppresses
apoptosis (cPARP) (RIvA DLBCL model): increases as the concentration of voruciclib increases
normalized tumor volume (SUDHL4 model of DLBCL; Voruciclib 200 mpk, Venetoclax 25 mpk, oral gavage 6 days of the week): increase in tumor volume
p53 (SUDHL4 model of DLBCL; Western blot of tumors, Day 26, 4 hours post treatment): restores
MCL-1 (MV-4-11; [3]): suppresses
apoptosis (cleaved PARP) (MV-4-11; [3]): induces apoptosis
MCL-1 (MV-4-11; [4]): dampens
apoptosis (PARP) (MV-4-11; [4]): neither agent alone induces apoptosis
MCL-1 (OCI-AML-3; [3]): suppresses
apoptosis (cleaved PARP) (OCI-AML-3; [3]): induces apoptosis
MCL-1 (OCI-AML-3; [4]): dampens
apoptosis (PARP) (OCI-AML-3; [4]): neither agent alone induces apoptosis
MCL-1 (SKM-1; [3]): suppresses
apoptosis (cleaved PARP) (SKM-1; [3]): induces apoptosis
MCL-1 (SKM-1; [4]): dampens
apoptosis (PARP) (SKM-1; [4]): neither agent alone induces apoptosis
